Reference: patent EP4273147A1, “SUBSTITUTED SPIROLACTAMS, SALTS THEREOF AND THEIR USE AS HERBICIDALLY ACTIVE SUBSTANCES” (Bayer Aktiengesellschaft, priority 2022, dated 2023)

Assays:
ZEAMX = assay: Post-emergence effects on crop plants (Table F1); assay type: in vivo, Zea mays; settings: application rate 320 g/ha, crop plant ZEAMX
Text: (§1) 2 to 3 weeks after sowing, the test plants were sprayed in the single-leaf stage.

ECHCG [1] = assay: Herbicidal post-emergence action, section E (Table E5); assay type: in vivo, Echinochloa crus-galli; settings: application rate 320 g/ha; assessed visually after ca. 3 weeks
Text: as §1

BRSNW = assay: Post-emergence effects on crop plants (Table F5); assay type: in vivo, Brassica napus; settings: application rate 320 g/ha, crop plant BRSNW
Text: as §1

GLXMA = assay: Post-emergence effects on crop plants (Table F4); assay type: in vivo, Glycine max; settings: application rate 80 g/ha, crop plant GLXMA
Text: as §1

AMARE = assay: Herbicidal pre-emergence action, section C (Table C3); assay type: in vivo, Amaranthus retroflexus; settings: application rate 320 g/ha; visual grading after ca. 3 weeks
Text: (§2) Seeds of mono- and dicotyledonous weed plants and crop plants were sown, in plastic or organic planting pots, in sandy loam and covered with soil. The compounds according to the invention, formulated in the form of wettable powders (WP) or as emulsifiable concentrates (EC), were applied to the surface of the covering soil as aqueous suspension or emulsion, with the addition of 0.5% of an additive, at an application rate of 600 1 of water/ha (converted). Following treatment, the pots were placed in a greenhouse and kept under optimum growth conditions for the test plants.

DIGSA [2] = assay: Herbicidal post-emergence action, section E (Table E4); assay type: in vivo, Digitaria sanguinalis; settings: application rate 320 g/ha; assessed visually after ca. 3 weeks
Text: as §1

VERPE [3] = assay: Herbicidal pre-emergence action, section C (Table C11); assay type: in vivo, Veronica persica; settings: application rate 320 g/ha; visual grading after ca. 3 weeks
Text: as §2

ORYZA = assay: Post-emergence effects on crop plants (Table F3); assay type: in vivo, Oryza sativa; settings: application rate 80 g/ha, crop plant ORYZA
Text: as §1

AVEFA = assay: Herbicidal pre-emergence action, section C (Table C4); assay type: in vivo, Avena fatua; settings: application rate 320 g/ha; visual grading after ca. 3 weeks
Text: as §2

VIOTR = assay: Herbicidal pre-emergence action, section C (Table C12); assay type: in vivo, Viola tricolor; settings: application rate 80 g/ha; visual grading after ca. 3 weeks
SETVI = assay: Herbicidal pre-emergence action, section C (Table C10); assay type: in vivo, Setaria viridis; settings: application rate 80 g/ha; visual grading after ca. 3 weeks
ALOMY [4] = assay: Herbicidal pre-emergence action, section C (Table C2); assay type: in vivo, Alopecurus myosuroides; settings: application rate 80 g/ha; visual grading after ca. 3 weeks
LOLRI = assay: Herbicidal pre-emergence action, section C (Table C7); assay type: in vivo, Lolium rigidum; settings: application rate 320 g/ha; visual grading after ca. 3 weeks
VERPE [5] = assay: Herbicidal post-emergence action, section E (Table E9); assay type: in vivo, Veronica persica; settings: application rate 320 g/ha; assessed visually after ca. 3 weeks
Text: as §1

DIGSA [6] = assay: Herbicidal pre-emergence action, section C (Table C5); assay type: in vivo, Digitaria sanguinalis; settings: application rate 80 g/ha; visual grading after ca. 3 weeks
TRZAS = assay: Post-emergence effects on crop plants (Table F2); assay type: in vivo, Triticum aestivum; settings: application rate 80 g/ha, crop plant TRZAS
Text: as §1

ECHCG [7] = assay: Herbicidal pre-emergence action, section C (Table C6); assay type: in vivo, Echinochloa crus-galli; settings: application rate 80 g/ha; visual grading after ca. 3 weeks
Text: as §2

ALOMY [8] = assay: Herbicidal post-emergence action, section E (Table E2); assay type: in vivo, Alopecurus myosuroides; settings: application rate 80 g/ha; assessed visually after ca. 3 weeks
Text: as §1

POLCO = assay: Herbicidal pre-emergence action, section C (Table C9); assay type: in vivo, Polygonum convolvulus; settings: application rate 80 g/ha; visual grading after ca. 3 weeks
MATIN = assay: Herbicidal pre-emergence action, section C (Table C8); assay type: in vivo, Matricaria inodora; settings: application rate 320 g/ha; visual grading after ca. 3 weeks

O=C1N(Cc2c(F)cccc2F)CCCC12CCCN(Cc1c(F)cccc1F)C2=O (single isomer, unassigned; (-)) [I-009, (-)-2,8-bis[(2,6-difluorophenyl)methyl]-2,8-diazaspiro[5.5]undecane-1,7-dione]
20%: post-emergence activity against ZEAMX (ZEAMX) | post-emergence activity against BRSNW (BRSNW) | post-emergence activity against GLXMA (GLXMA)
100%: pre-emergence activity against SETVI (SETVI) | pre-emergence activity against ALOMY (ALOMY [4]) | pre-emergence activity against LOLRI (LOLRI) | pre-emergence activity against DIGSA (DIGSA [6]) | pre-emergence activity against ECHCG (ECHCG [7])
80%: pre-emergence activity against VIOTR (VIOTR) | post-emergence activity against VERPE (VERPE [5]) | post-emergence activity against ALOMY (ALOMY [8]) | pre-emergence activity against POLCO (POLCO)
90%: post-emergence activity against ECHCG (ECHCG [1]) | pre-emergence activity against AMARE (AMARE) | post-emergence activity against DIGSA (DIGSA [2]) | pre-emergence activity against VERPE (VERPE [3]) | pre-emergence activity against AVEFA (AVEFA) | pre-emergence activity against MATIN (MATIN)
10%: post-emergence activity against ORYZA (ORYZA) | post-emergence activity against TRZAS (TRZAS)
